Assay results reported in patent publication US9150560B2, “Inhibitors of histone deacetylase” (Janssen Pharmaceutica, N.V., priority 2002, dated 2015).
Like-named read-outs stand apart in the source and are kept apart here.

Experiments:
[1] = Kinetic solubility in aqueous media (nephelometry); assay type: physicochemical; settings: phosphate citrate buffer pH 7.4, turbidity of three dilution steps
Description: Kinetic solubility in aqueous media measures the ability of a compound to stay in aqueous solution upon dilution (see example C.3).
DMSO-stock solutions are diluted with a single aqueous buffer solvent in 3 consecutive steps. For every dilution turbidity is measured with a nephelometer.
In the first dilution step, 10 μl of a concentrated stock-solution of the active compound, solubilized in DMSO (5 mM), was added to 100 μl phosphate citrate buffer pH 7.4 and mixed. In the second dilution step, an aliquot (20 μl) of the first dilution step was further dispensed in 100 μl phosphate citrate buffer pH 7.4 and mixed. Finally, in the third dilution step, a sample (20 μl) of the second dilution step was further diluted in 100 μl phosphate citrate buffer pH 7.4 and mixed. All dilutions were performed in 96-well plates. Immediately after the last dilution step the turbidity of the three consecutive dilution steps were measured with a nephelometer. Dilution was done in triplicate for each compound to exclude occasional errors. Based on the turbidity measurements a ranking is performed into 3 classes. Compounds with high solubility obtained a score of 3 and for this compounds the first dilution is clear. Compounds with medium solubility obtained a score of 2. For these compounds the first dilution is unclear and the second dilution is clear. […] The solubility of 9 compounds was measured.

[2] = system: A2780 ovarian carcinoma cells; assay: Determination of antiproliferative activity on A2780 cells (MTT); assay type: cell-based, human; settings: four days of incubation; for IC50: Homo sapiens, 96 h, read-out: Cellular activity pIC50 (converted)
Description: Cellular activity of the compounds of formula (I) was determined on A2780 tumour cells using a colorimetric assay for cell toxicity or survival (Mosmann Tim, Journal of Immunological Methods 65: 55-63, 1983)(see example C.2).
All compounds tested were dissolved in DMSO and further dilutions were made in culture medium. Final DMSO concentrations never exceeded 0.1% (v/v) in cell proliferation assays. Controls contained A2780 cells and DMSO without compound and blanks contained DMSO but no cells. MTT was dissolved at 5 mg/ml in PBS. A glycine buffer comprised of 0.1 M glycine and 0.1 M NaCl buffered to pH 10.5 with NaOH (1 N) was prepared (all reagents were from Merck).
The human A2780 ovarian carcinoma cells (a kind gift from Dr. T. C. Hamilton [Fox Chase Cancer Centre, Pennsylvania, USA]) were cultured in RPMI 1640 medium supplemented with 2 mM L-glutamine, 50 μg/ml gentamicin and 10% fetal calf serum. Cells were routinely kept as monolayer cultures at 37° C. in a humidified 5% CO2 atmosphere. Cells were passaged once a week using a trypsin/EDTA solution at a split ratio of 1:40. All media and supplements were obtained from Life Technologies. Cells were free of mycoplasma contamination as determined using the Gen-Probe Mycoplasma Tissue Culture kit (supplier: BioMérieux).
Cells were seeded in NUNC™ 96-well culture plates (Supplier: Life Technologies) and allowed to adhere to the plastic overnight. Densities used for plating were 1500 cells per well in a total volume of 200 μl medium. After cell adhesion to the plates, medium was changed and drugs and/or solvents were added to a final volume of 200 μl. Following four days of incubation, medium was replaced by 200 μl fresh medium and cell density and viability was assessed using an MTT-based assay. To each well, 25 μl MTT solution was added and the cells were further incubated for 2 hours at 37° C. The medium was then carefully aspirated and the blue MTT-formazan product was solubilized by addition of 25 μl glycine buffer followed by 100 μl of DMSO. […] Within an experiment, the results for each experimental condition are the mean of 3 replicate wells. For initial screening purposes, compounds were tested at a single fixed concentration of 10^−6M. For active compounds, the experiments were repeated to establish full concentration-response curves. For each experiment, controls (containing no drug) and a blank incubation (containing no cells or drugs) were run in parallel. The blank value was subtracted from all control and sample values. For each sample, the mean value for cell growth (in absorbance units) was expressed as a percentage of the mean value for cell growth of the control. […] Herein the effects of test compounds are expressed as pIC50 (the negative log value of the IC50-value).

[3] = molecular target: histone deacetylase (HDAC), HeLa nuclear extracts; assay: In vitro assay for inhibition of histone deacetylase; assay type: biochemical; design: key: pIC50 = negative log of IC50; settings: [3H]acetylated histone H4 peptide substrate, 30 min
Description: The in vitro assay for inhibition of histone deacetylase (see example C.1) measures the inhibition of HDAC enzymatic activity obtained with the compounds of formula (I).
HeLa nuclear extracts (supplier: Biomol) were incubated at 60 μg/ml with 2×10^−8 M of radiolabeled peptide substrate. As a substrate for measuring HDAC activity a synthetic peptide, i.e. the amino acids 14-21 of histone H4, was used. The substrate is biotinylated at the NH2-terminal part with a 6-aminohexanoic acid spacer, and is protected at the COOH-terminal part by an amide group and specifically [^3H]acetylated at lysine 16. The substrate, biotin-(6-aminohexanoic)Gly-Ala-([^3H]-acetyl-Lys-Arg-His-Arg-Lys-Val-NH2), was added in a buffer containing 25 mM Hepes, 1 M sucrose, 0.1 mg/ml BSA and 0.01% Triton X-100 at pH 7.4. After 30 min the deacetylation reaction was terminated by the addition of HCl and acetic acid. (final concentration 0.035 mM and 3.8 mM respectively). After stopping the reaction, the free ^3H-acetate was extracted with ethylacetate. After mixing and centrifugation, the radioactivity in an aliquot of the upper (organic) phase was counted in a β-counter.
For each experiment, controls (containing HeLa nuclear extract and DMSO without compound), a blank incubation (containing DMSO but no HeLa nuclear extract or compound) and samples (containing compound dissolved in DMSO and HeLa nuclear extract) were run in parallel. In first instance, compounds were tested at a concentration of 10^−5M. […] In each test the blank value was substracted from both the control and the sample values. The control sample represented 100% of substrate deactylation. For each sample the radioactivity was expressed as a percentage of the mean value of the controls. […] Herein the effects of test compounds are expressed as pIC50 (the negative log value of the IC50-value).

[4] = not given; remark: listed apart in the source

Row | Structure (SMILES) | % metabolism (human, 15 min, 5 μM) | Solubility Score [1] | IC50 [2] | Enzyme activity pIC50 [3] | melting point [4] | Cellular activity pIC50 [2] | % metabolism (15 min incubation, compound 5 μM, microsomes 1 mg/ml, NADPH-generating system)
1 | COc1cc(N)c(Cl)cc1C(=O)NC1CCN(CCCOc2ccc(F)cc2)CC1OC (stereo not shown) [Cisapride] | 45% | – | – | – | – | – | –
2 | O=C(CS)Nc1ccc(N2CCC3(CC2)C(=O)NCN3c2ccccc2)cc1 [Co. No. 1] | – | 1 (Compounds with low solubility obtained a score of 1 and for these compounds both the first and the second dilution are unclear) | > 10000 nM | <5 | – | – | –
3 | CN(C)S(=O)(=O)N1CCN(c2ncc(C(=O)NO)cn2)CC1 [Co. No. 2] | – | 3 (Compounds with high solubility obtained a score of 3 and for this compounds the first dilution is clear) | 2920 nM | 6.615 | > 260 °C | – | –
4 | NS(=O)(=O)N1CCN(c2ncc(C(=O)NO)cn2)CC1 [Co. No. 3] | – | 3 (Compounds with high solubility obtained a score of 3 and for this compounds the first dilution is clear) | > 10000 nM | 6.881 | 212 °C | – | –
5 | CN(C)S(=O)(=O)NCC1CCN(c2ncc(C(=O)NO)cn2)CC1 [Co. No. 4] | – | 3 (Compounds with high solubility obtained a score of 3 and for this compounds the first dilution is clear) | 2960 nM | 7.27 | 182 °C | – | –
6 | O=C(NO)c1cnc(N2CCN(C(=O)C(c3ccccc3)c3ccccc3)CC2)nc1 [Co. No. 5] | – | – | 659 nM | 7.096 | – | – | –
7 | O=C(NO)c1cnc(N2CCN(C(=O)c3ccc4ccccc4c3)CC2)nc1 [Co. No. 6] | – | 3 (Compounds with high solubility obtained a score of 3 and for this compounds the first dilution is clear) | 1490 nM | 7.104 | 130 °C | – | –
8 | CCCCCCCCS(=O)(=O)N1CCN(c2ccc(C(=O)NO)cc2)CC1 [compound 18] | – | 1 (Compounds with low solubility obtained a score of 1 and for these compounds both the first and the second dilution are unclear) | – | 6.173 | – | 6.166 | –
9 | O=C(NO)c1cnc(N2CCN(C(=O)c3cccc4ccccc34)CC2)nc1 [compound 24] | – | – | – | 7.073 | – | 6.084 | –
10 | CCCO [propanol] | – | – | – | – | – | – | 25%
